The test system of one series is Abutilon theophrasti. Put plainly: whole plant or invertebrate. The note with it: for pest or weed control at 50 g/ha: read-out: Data (measured value) Abutilon theophrasti, 50 g/ha; for pest or weed control at 100 g/ha: read-out: Data (measured value) Abutilon theophrasti, 100 g/ha; for pest or weed control at 150 g/ha: read-out: plant mortality, measured value, 150 g/ha; for pest or weed control at 300 g/ha: read-out: plant mortality, measured value, 300 g/ha.

The test system of the next series is Xanthium spinosum. Put plainly: whole plant or invertebrate. The note with it: for pest or weed control at 50 g/ha: read-out: Data (measured value) Xanthium spinosum, 50 g/ha; for pest or weed control at 100 g/ha: read-out: Data (measured value) Xanthium spinosum, 100 g/ha; for pest or weed control at 150 g/ha: read-out: plant mortality, measured value, 150 g/ha; for pest or weed control at 300 g/ha: read-out: plant mortality, measured value, 300 g/ha.

The next series deals with Echinochloa crus. The note with it: for Echinochloa crus mortality, measured value: 20 days after treatment; for plant mortality, measured value: Echinochloa crus.
The next series relates to Aeschynomene indica. Put plainly: whole plant or invertebrate. The note with it: for pest or weed control at 50 g/ha: read-out: Data (measured value) Aeschynomene indica, 50 g/ha; for pest or weed control at 100 g/ha: read-out: Data (measured value) Aeschynomene indica, 100 g/ha; for pest or weed control at 150 g/ha: read-out: plant mortality, measured value, 150 g/ha; for pest or weed control at 300 g/ha: read-out: plant mortality, measured value, 300 g/ha.

The subject of another series is Digitaria sanguinalis. The note with it: for Digitaria sanguinalis mortality, measured value: 20 days after treatment; for plant mortality, measured value: Digitaria sanguinalis.
[1] abbreviates: 480 h, read-out: Abutilon theophrasti mortality, measured value.
The mark [2] stands for this setting: 480 h, read-out: Xanthium spinosum mortality, measured value.
[3] abbreviates: 480 h, read-out: Aeschynomene indica mortality, measured value.
[4] abbreviates: read-out: plant mortality, measured value, 75 g/ha.
[5] abbreviates: read-out: plant mortality, measured value, 600 g/ha.

Like-named read-outs stand apart in the source and are kept apart here.

The mortality is the percentage killed.

Text for Abutilon theophrasti: (§1) X is % damage by uracil compound (a) of formula 1 at the rate of application of p kg/ha; Y is % damage by conventional herbicidal compound (b) at the rate of application of q kg/ha; and E is the expected damage caused by compounds (a) and (b) at a rate of application of p and q kg/ha.
(§2) The expected activity for a given combination of two herbicides can be calculated using equation 1 above.
Text for Aeschynomene indica: as §1, §2
Text for Digitaria sanguinalis: as §1, §2
Text for Echinochloa crus: as §1, §2
Text for Xanthium spinosum: as §1, §2

`CC(Oc1ccc(Oc2ccc(C(F)(F)F)cn2)cc1)C(=O)O` (stereo not drawn) [Fluazifop, reference compound]: the mortality at 50 g/ha with Abutilon theophrasti (setting [1]), in the series with Xanthium spinosum (setting [2]) and in the series on Aeschynomene indica (setting [3]) was 0% in each case. The mortality at 100 g/ha with Abutilon theophrasti (setting [1]), with Xanthium spinosum (setting [2]) and in the series with Aeschynomene indica (setting [3]) was 0% throughout. The mortality at 200 g/ha in the series on Abutilon theophrasti (setting [1]), in the series with Xanthium spinosum (setting [2]) and in the series on Aeschynomene indica (setting [3]) was 0% throughout. Further, the “Echinochloa crus mortality, measured value” (shortened to “Echinochloa crus mortality”) stood at 10% in the series with Echinochloa crus (50 g/ha), 26% in the series on Echinochloa crus (100 g/ha) and 61% with Echinochloa crus (200 g/ha). In addition, the “Digitaria sanguinalis mortality, measured value” (“Digitaria sanguinalis mortality” for short) in the series with Digitaria sanguinalis (50 g/ha) was 9%; with Digitaria sanguinalis (100 g/ha), 21%; in the series on Digitaria sanguinalis (200 g/ha) it was 52%.
In the case of `Nc1c(Cl)c(F)nc(OCC(=O)O)c1Cl` [Fluroxypyr], the pest or weed control at 50 g/ha came to 9% with Abutilon theophrasti, 7% in the series on Xanthium spinosum and 13% with Aeschynomene indica. Further, the figures for the pest or weed control at 100 g/ha in the series on Abutilon theophrasti, in the series with Xanthium spinosum and in the series on Aeschynomene indica were 26%, 23% and 27%, respectively. For the same compound, the pest or weed control at 200 g/ha in the series on Abutilon theophrasti (read-out: Data (measured value) Abutilon theophrasti, 200 g/ha) turned out to be 53%; with Xanthium spinosum (read-out: Data (measured value) Xanthium spinosum, 200 g/ha) it was 54%; with Aeschynomene indica (read-out: Data (measured value) Aeschynomene indica, 200 g/ha), 63%. Besides, the “Data (measured value) Echinochloa crus” value in the series on Echinochloa crus (50 g/ha), with Echinochloa crus (100 g/ha) and in the series on Echinochloa crus (200 g/ha) was 0 throughout. The “Data (measured value) Digitaria sanguinalis” value in the series on Digitaria sanguinalis (50 g/ha), with Digitaria sanguinalis (100 g/ha) and in the series on Digitaria sanguinalis (200 g/ha) was 0 each time.
Regarding `CP(=O)(O)CCC(N)C(=O)O` (stereo not drawn) [Glufosinate, reference compound], the mortality at 75 g/ha in the series with Abutilon theophrasti (setting [1]) came out at 7%; with Xanthium spinosum (setting [2]), 13%; with Aeschynomene indica (setting [3]), 5%. In addition, the mortality at 150 g/ha in the series on Abutilon theophrasti (setting [1]) came to 25%; in the series on Xanthium spinosum (setting [2]), 25%; in the series on Aeschynomene indica (setting [3]), 18%. The mortality at 300 g/ha in the series with Abutilon theophrasti (setting [1]) worked out at 49%; in the series on Xanthium spinosum (setting [2]), 56%; in the series with Aeschynomene indica (setting [3]), 46%. The pest or weed control at 75 g/ha in the series on Abutilon theophrasti (setting [4]) stood at 7%; with Xanthium spinosum (setting [4]), 13%; in the series on Aeschynomene indica (setting [4]), 5%. The pest or weed control at 150 g/ha amounted to 25% in the series on Abutilon theophrasti, 25% with Xanthium spinosum and 18% in the series with Aeschynomene indica. Also, the results for the pest or weed control at 300 g/ha with Abutilon theophrasti, in the series on Xanthium spinosum and in the series on Aeschynomene indica were 49%, 56% and 46%, respectively. The “Echinochloa crus mortality” value is on record as 15% with Echinochloa crus (75 g/ha), 29% in the series with Echinochloa crus (150 g/ha) and 60% in the series with Echinochloa crus (300 g/ha). Besides, the “plant mortality, measured value” in the series with Echinochloa crus (75 g/ha) was 15; in the series on Echinochloa crus (150 g/ha) it was 29; in the series on Echinochloa crus (300 g/ha), 60; in the series with Digitaria sanguinalis (75 g/ha), 11; in the series with Digitaria sanguinalis (150 g/ha), 27; with Digitaria sanguinalis (300 g/ha), 57. In addition, the entries for the “Digitaria sanguinalis mortality” value with Digitaria sanguinalis (75 g/ha), in the series with Digitaria sanguinalis (150 g/ha) and in the series with Digitaria sanguinalis (300 g/ha) were 11%, 27% and 57%, respectively.
Consider `O=C(O)CNCP(=O)(O)O` [Glyphosate, reference compound], for which the mortality at 150 g/ha worked out at 8% with Abutilon theophrasti (setting [1]), 11% in the series with Xanthium spinosum (setting [2]) and 9% in the series with Aeschynomene indica (setting [3]). Besides, the mortality at 300 g/ha with Abutilon theophrasti (setting [1]) stood at 27%; in the series on Xanthium spinosum (setting [2]), 30%; in the series with Aeschynomene indica (setting [3]), 22%. Besides, the mortality at 600 g/ha was found to be 59% in the series on Abutilon theophrasti (setting [1]), 64% in the series on Xanthium spinosum (setting [2]) and 47% in the series on Aeschynomene indica (setting [3]). Moreover, the pest or weed control at 150 g/ha in the series on Abutilon theophrasti stood at 8%; with Xanthium spinosum, 11%; with Aeschynomene indica, 9%. For the same compound, the pest or weed control at 300 g/ha with Abutilon theophrasti was found to be 27%; with Xanthium spinosum, 30%; in the series with Aeschynomene indica, 22%. The pest or weed control at 600 g/ha with Abutilon theophrasti (setting [5]) is 59%; with Xanthium spinosum (setting [5]) it was 64%; in the series with Aeschynomene indica (setting [5]) it was 47%. The “Echinochloa crus mortality” value came out at 12% in the series on Echinochloa crus (150 g/ha), 23% in the series with Echinochloa crus (300 g/ha) and 48% in the series with Echinochloa crus (600 g/ha). Also, the “plant mortality, measured value” in the series with Echinochloa crus (150 g/ha) is 12; with Echinochloa crus (300 g/ha) it was 23; in the series with Echinochloa crus (600 g/ha), 48; in the series with Digitaria sanguinalis (150 g/ha), 8; in the series with Digitaria sanguinalis (300 g/ha), 18; in the series with Digitaria sanguinalis (600 g/ha), 46. The “Digitaria sanguinalis mortality” value is given as 8% in the series with Digitaria sanguinalis (150 g/ha), 18% with Digitaria sanguinalis (300 g/ha) and 46% in the series on Digitaria sanguinalis (600 g/ha).
In the case of `CC(Oc1ccc(Oc2ncc(C(F)(F)F)cc2Cl)cc1)C(=O)O` (stereo not drawn) [Haloxyfop, reference compound], the mortality at 12.5 g/ha in the series on Abutilon theophrasti (setting [1]), in the series with Xanthium spinosum (setting [2]) and in the series with Aeschynomene indica (setting [3]) was 0% in each case. Besides, the mortality at 25 g/ha in the series on Abutilon theophrasti (setting [1]), with Xanthium spinosum (setting [2]) and in the series with Aeschynomene indica (setting [3]) was 0% throughout. For the same compound, the mortality at 50 g/ha in the series with Abutilon theophrasti (setting [1]), in the series on Xanthium spinosum (setting [2]) and in the series with Aeschynomene indica (setting [3]) was 0% each time. The results for the “Echinochloa crus mortality” value in the series with Echinochloa crus (12.5 g/ha), with Echinochloa crus (25 g/ha) and in the series on Echinochloa crus (50 g/ha) were 11%, 28% and 58%, respectively. The “Digitaria sanguinalis mortality” value with Digitaria sanguinalis (12.5 g/ha) worked out at 14%; in the series with Digitaria sanguinalis (25 g/ha) it was 29%; in the series with Digitaria sanguinalis (50 g/ha), 57%.
For the compound `CCc1cnc(C2=NC(C)(C(C)C)C(=O)N2)c(C(=O)O)c1` (stereo not drawn) [Imazethapyr], the pest or weed control at 25 g/ha is 9% in the series with Abutilon theophrasti (read-out: Data (measured value) Abutilon theophrasti, 25 g/ha); 9% with Xanthium spinosum (read-out: Data (measured value) Xanthium spinosum, 25 g/ha); 11% in the series with Aeschynomene indica (read-out: Data (measured value) Aeschynomene indica, 25 g/ha). Moreover, the pest or weed control at 50 g/ha in the series with Abutilon theophrasti worked out at 24%; in the series with Xanthium spinosum it was 20%; with Aeschynomene indica it was 25%. Moreover, the pest or weed control at 100 g/ha turned out to be 58% in the series with Abutilon theophrasti, 47% with Xanthium spinosum and 54% with Aeschynomene indica. The “Data (measured value) Echinochloa crus” value is 11 in the series with Echinochloa crus (25 g/ha), 26 in the series on Echinochloa crus (50 g/ha) and 53 in the series on Echinochloa crus (100 g/ha). Further, the results for the “Data (measured value) Digitaria sanguinalis” value with Digitaria sanguinalis (25 g/ha), in the series on Digitaria sanguinalis (50 g/ha) and with Digitaria sanguinalis (100 g/ha) were 11, 26 and 62, respectively.

The values are drawn from patent publication US10206399B2, “Herbicidal composition comprising uracil compound as active ingredient” (Dongbu Farm Hannong Co., Ltd., priority 2012, dated 2019).
